Some test systems named below: UACC-257 melanoma; OVCAR-5 ovarian; KM12 colon; LOX IMVI melanoma; A498 renal; MOLT-4 leukemia; OVCAR-8 ovarian; SNB-75 CNS; RXF 393 renal; HCT-15 colon.
Test in all cases: NCI-60 cell line screen, 48 h

Drawing on PubChem BioAssay (NCI), this text covers GI50 and TGI for 13 molecules.

Each structure is given as a SMILES string. Values joined by “and” are separate entries in the source; they are usually repeats but may differ in a detail not shown here. Identical values can stand only once.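 Cultured in 96-well plates, cells were exposed to test compound for 48 hours across five concentrations. At the GI50, growth is halved. TGI marks complete inhibition of growth.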

For `O=NN(CC(=O)NNc1ccccc1)CC(=O)NNc1ccccc1`, the GI50 in the assay on UACC-257 melanoma was 22.4 µM; in the assay on OVCAR-5 ovarian, > 100 µM; in the assay on KM12 colon it was 0.893 µM; with LOX IMVI melanoma, 1.22 µM; with A498 renal, > 100 µM; in the assay on MOLT-4 leukemia, 4.04 µM. Further, the GI50 with OVCAR-8 ovarian was 9.88 µM; in the assay with SNB-75 CNS it was > 45.4 µM; in the assay with RXF 393 renal, > 100 µM; in the assay on HCT-15 colon, 12.3 µM. Also, the TGI with UACC-257 melanoma, with OVCAR-5 ovarian, in the assay with KM12 colon, in the assay with LOX IMVI melanoma, with A498 renal and with MOLT-4 leukemia was > 100 µM in each case. The TGI in the assay on OVCAR-8 ovarian, in the assay with SNB-75 CNS, with RXF 393 renal and in the assay with HCT-15 colon was > 100 µM in each case.

For the molecule `N#C/C(=C\c1ccccn1)c1nc2ccccc2o1`, the GI50 is 35.8 µM with UACC-257 melanoma; 31.9 µM with OVCAR-5 ovarian; 26.8 µM with KM12 colon; 17 µM in the assay on LOX IMVI melanoma; 30.4 µM with A498 renal; 24.6 µM with MOLT-4 leukemia. Further, the GI50 was 36.2 µM in the assay with OVCAR-8 ovarian, 21.8 µM in the assay with SNB-75 CNS, 28.3 µM with RXF 393 renal and 20.7 µM in the assay on HCT-15 colon. Moreover, the TGI in the assay with UACC-257 melanoma is > 100 µM; in the assay with OVCAR-5 ovarian, > 100 µM; in the assay with KM12 colon it was > 100 µM; in the assay with LOX IMVI melanoma, 38.1 µM; in the assay with A498 renal, 99.2 µM; in the assay on MOLT-4 leukemia, 82.6 µM. The TGI in the assay on OVCAR-8 ovarian was > 100 µM; in the assay on SNB-75 CNS it was > 100 µM; in the assay with RXF 393 renal it was 82.2 µM; in the assay with HCT-15 colon, 55.8 µM.

As for `O=C1C[C@@H]2[C@@H](C=CC23CCCC3)N1O`, the TGI in the assay on UACC-257 melanoma, in the assay on OVCAR-5 ovarian, in the assay on KM12 colon, in the assay with LOX IMVI melanoma, in the assay on A498 renal and with MOLT-4 leukemia was > 100 µM throughout. Also, the TGI in the assay with OVCAR-8 ovarian, in the assay on SNB-75 CNS, with RXF 393 renal and in the assay with HCT-15 colon was > 100 µM in each case.

As to `O=C1/C(=C/c2ccccc2)CN(C(=O)/C=C/c2ccccc2)C/C1=C\c1ccccc1`, the TGI with UACC-257 melanoma is 37 µM; in the assay with OVCAR-5 ovarian it was 45.2 µM; in the assay on KM12 colon, 12.2 µM; with LOX IMVI melanoma, 7.1 µM; in the assay on A498 renal, 92 µM; with MOLT-4 leukemia, 35.4 µM. The TGI turned out to be 9.78 µM with OVCAR-8 ovarian, 60.5 µM in the assay with SNB-75 CNS, 30.4 µM in the assay on RXF 393 renal and 18.3 µM with HCT-15 colon.

Regarding `Nc1ccccc1SC(CC(=O)c1ccccc1)c1c(Cl)cccc1Cl` (stereo not given), the GI50 with UACC-257 melanoma was 14.6 µM; in the assay on OVCAR-5 ovarian it was 4.29 µM; in the assay on KM12 colon it was 2.26 µM; in the assay with LOX IMVI melanoma it was 1.59 µM; with A498 renal, 11.2 µM; in the assay on MOLT-4 leukemia, 3 µM. Also, the GI50 was 2.63 µM in the assay on OVCAR-8 ovarian, 10.8 µM in the assay on SNB-75 CNS, 4.23 µM with RXF 393 renal and 2.08 µM in the assay on HCT-15 colon. Further, the TGI with UACC-257 melanoma came out at 28.6 µM; in the assay with OVCAR-5 ovarian, 15.7 µM; with KM12 colon, 5.4 µM; in the assay with LOX IMVI melanoma, 3.2 µM; in the assay on A498 renal, 24 µM; in the assay with MOLT-4 leukemia it was 7.79 µM. Further, the TGI worked out at 9.61 µM with OVCAR-8 ovarian, 30.1 µM in the assay on SNB-75 CNS, 17.4 µM in the assay on RXF 393 renal and 5.92 µM in the assay with HCT-15 colon.

`COc1ccc(C(=O)c2no[n+]([O-])c2C(=O)c2ccc(OC)cc2)cc1`: the GI50 in the assay on UACC-257 melanoma is 3.46 µM; with OVCAR-5 ovarian, 10.6 µM; in the assay with KM12 colon, 8.91 µM; in the assay with LOX IMVI melanoma, 1.14 µM; with A498 renal, 15.6 µM; in the assay on MOLT-4 leukemia, 1.93 µM. The GI50 is 2.67 µM with OVCAR-8 ovarian, 3.03 µM in the assay on SNB-75 CNS, 2.25 µM in the assay on RXF 393 renal and 3.98 µM in the assay on HCT-15 colon. The TGI in the assay with UACC-257 melanoma was 10.4 µM; in the assay with OVCAR-5 ovarian it was 25.7 µM; in the assay on KM12 colon, 22.4 µM; in the assay with LOX IMVI melanoma, 2.53 µM; in the assay with A498 renal, 29.2 µM; with MOLT-4 leukemia it was 4.25 µM. Moreover, the TGI in the assay on OVCAR-8 ovarian stood at 6.6 µM; in the assay on SNB-75 CNS, 9.26 µM; in the assay with RXF 393 renal, 5.93 µM; with HCT-15 colon it was 14.9 µM.

With `O=C(Nc1cccc2[nH]c(C(F)(F)F)nc12)c1ccc(Br)cc1F`, the GI50 is 2.35 µM with UACC-257 melanoma; 5.19 µM in the assay with OVCAR-5 ovarian; 3.29 µM in the assay on KM12 colon; 3.78 µM in the assay on LOX IMVI melanoma; 2 µM in the assay on A498 renal; 3.83 µM in the assay with MOLT-4 leukemia. The GI50 in the assay on OVCAR-8 ovarian is 3.14 µM; in the assay with SNB-75 CNS, 2.68 µM; in the assay with RXF 393 renal, 3.1 µM; in the assay on HCT-15 colon, 3.33 µM. The TGI was found to be 6.67 µM in the assay with UACC-257 melanoma; 23.5 µM with OVCAR-5 ovarian; 12 µM with KM12 colon; 12.5 µM in the assay with LOX IMVI melanoma; 5.57 µM in the assay on A498 renal; 23.3 µM in the assay on MOLT-4 leukemia. Also, the TGI in the assay on OVCAR-8 ovarian came to 15.6 µM; in the assay on SNB-75 CNS, 18 µM; with RXF 393 renal, 9.12 µM; in the assay with HCT-15 colon, 14.1 µM.

Regarding `O=[N+]([O-])c1cc2c(ccc3ccccc32)o1`, the GI50 in the assay on UACC-257 melanoma was 0.188 µM; with OVCAR-5 ovarian, 1.53 µM; with KM12 colon, 0.973 µM; in the assay on LOX IMVI melanoma, 0.166 µM; with A498 renal, 0.127 µM; with MOLT-4 leukemia, 0.47 µM. The GI50 with OVCAR-8 ovarian is 0.55 µM; with SNB-75 CNS, 0.497 µM; in the assay on RXF 393 renal, 0.311 µM; with HCT-15 colon, 0.345 µM. Further, the TGI was found to be 0.417 µM with UACC-257 melanoma; 12.6 µM with OVCAR-5 ovarian; 4.02 µM in the assay with KM12 colon; 0.487 µM in the assay on LOX IMVI melanoma; 0.277 µM with A498 renal; 73.9 µM in the assay with MOLT-4 leukemia. Further, the TGI in the assay on OVCAR-8 ovarian stood at 5.83 µM; in the assay with SNB-75 CNS, 2.27 µM; in the assay with RXF 393 renal, 0.789 µM; in the assay on HCT-15 colon it was 2.35 µM.

As to `CCN(CC)CCNc1ccc2nc(C)n3c4ccc(OC)cc4c(=O)c1c23`, the TGI in the assay on UACC-257 melanoma turned out to be 22.3 µM; in the assay with OVCAR-5 ovarian it was 20.3 µM; in the assay with KM12 colon it was 14.6 µM; with LOX IMVI melanoma, 2.55 µM; in the assay with A498 renal, 20.6 µM; in the assay with MOLT-4 leukemia, 1.15 µM. Besides, the TGI came out at 9.25 µM with OVCAR-8 ovarian, 19 µM in the assay on SNB-75 CNS, 10.5 µM in the assay with RXF 393 renal and 10.3 µM with HCT-15 colon.

For `CCc1n(Cc2ccc3ccccc3c2)cc[n+]1Cc1ccc2ccccc2c1`, the GI50 is 0.554 µM in the assay with UACC-257 melanoma; 1.2 µM with OVCAR-5 ovarian; 0.549 µM in the assay with KM12 colon; 0.649 µM with LOX IMVI melanoma; 1.13 µM in the assay with A498 renal; 0.829 µM in the assay on MOLT-4 leukemia. Also, the GI50 is 0.76 µM in the assay on OVCAR-8 ovarian, 0.335 µM in the assay with SNB-75 CNS, 1.15 µM in the assay with RXF 393 renal and 3.94 µM with HCT-15 colon. Also, the TGI in the assay with UACC-257 melanoma came out at 3.27 µM; in the assay on OVCAR-5 ovarian it was 2.75 µM; in the assay with KM12 colon, 1.89 µM; in the assay on LOX IMVI melanoma, 1.96 µM; with A498 renal, 4.15 µM; in the assay on MOLT-4 leukemia, 2.99 µM. Besides, the TGI with OVCAR-8 ovarian was 3.13 µM; in the assay with SNB-75 CNS, 1.71 µM; with RXF 393 renal, 2.63 µM; in the assay with HCT-15 colon, 15.3 µM.

For the molecule `CCOC(=O)N1C/C(=C\c2ccc(N(C)C)cc2)C(=O)/C(=C/c2ccc(N(C)C)cc2)C1`, the TGI in the assay with UACC-257 melanoma, in the assay on OVCAR-5 ovarian, in the assay with KM12 colon, in the assay on LOX IMVI melanoma, in the assay on A498 renal and in the assay on MOLT-4 leukemia was > 100 µM each time. For the same molecule, the TGI in the assay with OVCAR-8 ovarian, in the assay on SNB-75 CNS, with RXF 393 renal and with HCT-15 colon was > 100 µM in each case.

In the case of `O=C1C=CC(=O)N1c1ccc2ccccc2c1`, the GI50 is 10.5 µM in the assay with UACC-257 melanoma; 17.9 µM in the assay with OVCAR-5 ovarian; 24.1 µM with KM12 colon; 16.4 µM in the assay with LOX IMVI melanoma; 12.7 µM in the assay on A498 renal; 4.49 µM in the assay with MOLT-4 leukemia. In addition, the GI50 in the assay on OVCAR-8 ovarian was 19.2 µM; in the assay with SNB-75 CNS it was 16.6 µM; with RXF 393 renal, 3.98 µM; in the assay with HCT-15 colon, 16.5 µM. The TGI in the assay on UACC-257 melanoma was determined as 22.7 µM; in the assay with OVCAR-5 ovarian, 34 µM; in the assay on KM12 colon, 71 µM; with LOX IMVI melanoma it was 31.3 µM; in the assay on A498 renal, 27.3 µM; in the assay on MOLT-4 leukemia it was 34.9 µM. Moreover, the TGI in the assay with OVCAR-8 ovarian amounted to 42.3 µM; in the assay on SNB-75 CNS it was 38.4 µM; in the assay on RXF 393 renal it was 12.9 µM; in the assay on HCT-15 colon it was 33.1 µM.

As to `COc1ccc(-c2cc(-c3ccco3)c(C#N)c(=O)n2C2OC(COC(C)=O)C(OC(C)=O)C(OC(C)=O)C2OC(C)=O)cc1` (stereo not given), the TGI is > 100 µM with UACC-257 melanoma; > 100 µM in the assay on OVCAR-5 ovarian; > 100 µM in the assay with KM12 colon; > 100 µM and 59.6 µM with LOX IMVI melanoma; > 100 µM and 75.8 µM in the assay on A498 renal; > 100 µM with MOLT-4 leukemia. Moreover, the TGI with OVCAR-8 ovarian was > 100 µM and 40.4 µM; in the assay with SNB-75 CNS, > 100 µM; with RXF 393 renal it was > 100 µM and 66.2 µM; in the assay with HCT-15 colon it was > 100 µM. In addition, the GI50 was 59.4 µM and 14.1 µM in the assay on LOX IMVI melanoma; > 100 µM and 22 µM in the assay with A498 renal; > 100 µM and 10.9 µM in the assay with OVCAR-8 ovarian; > 100 µM and 21.8 µM in the assay with RXF 393 renal; > 100 µM and 39 µM with HCT-15 colon.
